Consider two molecules from patent US4816474A, “Amino substituted thienothiopyran derivatives, composition containing them, and method of using them to stimulate presynaptic dopamine receptors” (Ciba-Geigy Corporation, priority 1987, dated 1989).

Structures can show the parent of a compound that is named as a salt.

For assay [1], the target named is presynaptic dopamine receptor. Nature of the assay: 3H-ADTN presynaptic dopamine receptor binding assay (displacement of 3H-ADTN from calf caudate nucleus membranes). The conditions noted are these: inhibition of specific binding of 0.2 nM 3H-ADTN by 50%, 60 min, 25° C. How it is done:
The presynaptic dopamine receptor binding properties indicative of the presynaptic dopamine receptor regulatory, e.g. agonistic activity, of the compounds of the invention can be determined in the dopamine binding assay in vitro by the following method involving the displacement of the dopamine agonist 2-amino-6,7-dihydroxy-1,2,3,4-tetrahydronaphthalene (^3 H-ADTN) from membranes of calf-caudate nucleus.
In the binding assay, triplicate 2 ml samples (equivalent to 5 mg/ml of brain tissue) of the calf brain caudate nucleus membrane suspension are incubated for 60 minutes at 25° C. with 0.2 nM ^3 H-ADTN without or in the presence of various concentrations of test compound in solvent. The reaction is terminated by filtering with 5 ml of cold 50 mM Tris-HCl buffer pH 7.7. The filters are placed in scintillation vials with 5 ml of scintillation solution, disrupted by vigorous mechanical shaking for 90 minutes, and counted for radioactivity.
The IC50 values which represent the concentration of test compounds required to inhibit the specific binding of 0.2 nM ^3 H-ADTN by 50% are determined graphically.
For orientation: Displacement assays read how much labelled ligand stays bound in the presence of the test substance.

For assay [2], the system named is presynaptic dopamine receptor (dopamine autoreceptor). Nature of the assay: GBL model in the rat: in-vivo presynaptic dopamine agonist (dopamine autoreceptor agonist) activity, inhibition of GBL-induced DOPA accumulation. To be noted: dose inhibiting DOPA accumulation by 50%. The procedure: The in-vivo presynaptic dopamine agonist activity (also called dopamine autoreceptor agonist activity) is determined in the rat gamma-butyrolactone (GBL) model by a modification of the procedure described by Walters and Roth, Naunyn Schmiedeberg's Arch. Pharmacol. 296, 5 (1976). In this model, a presynaptic dopamine agonist inhibits the GBL-induced accumulation of the dopamine precursor DOPA in the brain after pretreatment with 3-hydroxybenzylhydrazine (NDS-1015), a DOPA decarboxylase inhibitor.
Test compounds are dissolved in 0.9% saline, with sodium metabisulfite to prevent oxidation, if required. Animals are treated with i.p. injections of solutions of test compounds or saline, followed by gamma-butyrolactone (GBL, 750 mg/kg i.p.) or saline for control animals 15 minutes later, and finally with NSD-1015 (100 mg/kg i.p.) 5 minutes after the administration of GBL. Thirty minutes after the administration of NSD-1015, animals are sacrificed, brains are removed, and striatae are isolated, then frozen at -70° C. until deproteinization, extraction and analysis. The ED50 (dose at which the DOPA accumulation is inhibited by 50%) values are determined by plotting the percent inhibition of DOPA accumulation versus log10 of the dose of test compound administered. The same method is also applicable to oral administration of the test compounds.

As a reminder, the IC50 is the midpoint of a concentration-inhibition curve. `CCCN(CCC)C1CSc2sccc2C1` (stereo not drawn) [N,N-dipropyl-5,6-dihydro-4H-thieno[2,3-b]thiopyran-5-amine hydrochloride]: the IC50 in assay [1] was around 150 nM.

Turning to `CCCN(CCC)C1CSc2sccc2C1` (stereo not drawn) [5-dipropylamino-5,6-dihydro-4H-thieno[2,3-b]thiopyran], the “ED50 in the GBL model” value is recorded as “about 2.6 mg/kg” in assay [2] (i.p.) and around 5.6 mg/kg in assay [2] (p.o.).
